Values joined by “and” are separate entries in the source; they are usually repeats but may differ in a detail not shown here. Identical values can stand only once. Like-named read-outs stand apart in the source and are kept apart here. Starred links: 1 amine or outer side, 2 acyl side, 3 side chain; linkers in the order of their positions; H or OH if unused. Positions of bridges follow the written chain, without caps; N, C: chain ends. Non-standard residues stand in square brackets, D forms with d. Residues, ends and D or L forms follow the SMILES beside them. ξ: configuration not given here. S5 = C=CCCC[C@](C)(N)C(=O)O; Nle = CCCC[C@H](N)C(=O)O; ξαMeC = CC(N)(CS)C(=O)O; X1 = C(=CC[*:2])C[*:1]; X2 = C(CC[*:2])C[*:1]

The nature of data set [1]: Pepsin Stability: (E/S 1:50). The text has this:
Table printed on a drawing sheet, Figure 12
(§1) Title: Pepsin Stability: (E/S 1:50)
The patent's description of the figure: FIG. 12 describes the comparative pepsin stability of SP-1 and SP-35 peptidomimetic macrocycles of the invention.
First reader's note: The title is printed over the plot below the table; the rate constants and half-lives describe degradation by pepsin, and the time points used are on the plot's Time (min) axis.

Data set [2] in a line: Pharmacokinetics of SP-1 and SP-35 in Rat following IV dose. The text has this: Table printed on a drawing sheet, Figure 18
Title: Pharmacokinetics of SP-1 and SP-35 in Rat following IV dose
The patent's description of the figure: FIG. 18 illustrates the pharmacokinetic properties of SP-1 and SP-35 peptidomimetic macrocycles in rats.
First reader's note: The title stands over the plot above the table and applies to both: rat, IV dose.

Another data set concerns the target T1, GST-Bcl-XL (Homo sapiens, UniProt Q07817).
T1 construct: GST
Put plainly: Kd. The procedure: Table printed on a drawing sheet, Figure 7
The patent's description of the figure: FIG. 7 depicts binding properties to GST-Bcl-XL of SP-1 and SP-35 peptidomimetic macrocycles.
First copying reader's note: The table stands beside a saturation binding plot (2 µM receptor, 1x PBS + 5 mM CHAPS, 2.5% DMSO) whose legend names GST-Bcl-xL as the receptor for both peptides.
Where the first naming reader finds the target: description_of_the_figure: FIG. 7 depicts binding properties to GST-Bcl-XL of SP-1 and SP-35 peptidomimetic macrocycles.

The target in data set [3] is GST-Bcl-2. Put plainly: Kd. How it is done:
Table printed on a drawing sheet, Figure 8
The patent's description of the figure: FIG. 8 depicts binding properties to GST-Bcl-2 of SP-1 and SP-35 peptidomimetic macrocycles.
First copying reader's note: The Kd values belong to the plot beside the table, titled 'Saturation Binding Curves vs. 2 µM Receptor, 1x PBS + 5 mM CHAPS, 2.5% DMSO', whose legend names the receptor as GST-Bcl-2.
Where the first naming reader finds the target: description_of_the_figure: FIG. 8 depicts binding properties to GST-Bcl-2 of SP-1 and SP-35 peptidomimetic macrocycles.

The nature of data set [4]: Pepsin Stability: (E/S 1:50).
Description: Table printed on a drawing sheet, Figure 14
as §1
The patent's description of the figure: FIG. 14 describes the comparative pepsin stability of SP-33 and SP-34 peptidomimetic macrocycles of the invention.
First reader's note: The title is the heading of the plot printed under the table; the table gives the rate constants and half-lives of the pepsin digestion, fitted over the named time points.
This is another data set of the same source.

Data set [5] is described as follows: Pepsin Stability: (E/S 1:50).
Description: Table printed on a drawing sheet, Figure 13
as §1
The patent's description of the figure: FIG. 13 describes the comparative pepsin stability of SP-36 and SP-37 peptidomimetic macrocycles of the invention.
First reader's note: Each peptide appears twice (duplicate runs); the title is printed between the table and the plot of the same figure, and NC/NA are not defined on the sheet.
The source holds these as a separate data set.

Data set [6] can be described thus: Pharmacokinetics of SP-43 and SP-42 in Rat following IV dose. The following applies: in vivo. The source says: Table printed on a drawing sheet, Figure 20
Title: Pharmacokinetics of SP-43 and SP-42 in Rat following IV dose
The patent's description of the figure: FIG. 20 illustrates the pharmacokinetic properties of SP-42 and SP-43 peptidomimetic macrocycles in rats.
First reader's note: Pharmacokinetic parameters in rat after an IV dose; the table stands under a concentration-time plot that is not copied.

The nature of data set [7]: Pharmacokinetics of SP-4 and SP-54 in Rats following IV dose. The text has this: Table printed on a drawing sheet, Figure 19
Title: Pharmacokinetics of SP-4 and SP-54 in Rats following IV dose
The patent's description of the figure: FIG. 19 illustrates the pharmacokinetic properties of SP-4 and SP-54 peptidomimetic macrocycles in rats.
First reader's note: Pharmacokinetic parameters in rats after IV dosing; the table is printed under a concentration-time plot that is not copied.

A further data set has as its target GST-Mcl-1. Kind of data set: Kd. How it is done:
Table printed on a drawing sheet, Figure 4
The patent's description of the figure: FIG. 4 depicts binding properties to GST-Mcl-1 of SP-4 and SP-54 peptidomimetic macrocycles.
First copying reader's note: Kd values belong to the adjacent saturation binding plot (stapled peptides + GST-Mcl-1, 2 µM receptor, 1x PBS + 5 mM CHAPS, 2.5% DMSO).
Where the first naming reader finds the target: description_of_the_figure: FIG. 4 depicts binding properties to GST-Mcl-1 of SP-4 and SP-54 peptidomimetic macrocycles.

Data set [8] deals with GST-Bcl-2. Kind of data set: Kd. The procedure:
Table printed on a drawing sheet, Figure 5
The patent's description of the figure: FIG. 5 depicts binding properties to GST-Bcl-2 of SP-4 and SP-54 peptidomimetic macrocycles.
First copying reader's note: Kd values belong to the plot beside the table, titled 'Saturation Binding Curves vs. 2 µM Receptor, 1x PBS + 5 mM CHAPS, 2.5% DMSO', with GST-Bcl-2 as the receptor.
Where the first naming reader finds the target: description_of_the_figure: FIG. 5 depicts binding properties to GST-Bcl-2 of SP-4 and SP-54 peptidomimetic macrocycles.
This is another data set of the same source.

T1 sequence (Q07817 whole entry, looked up): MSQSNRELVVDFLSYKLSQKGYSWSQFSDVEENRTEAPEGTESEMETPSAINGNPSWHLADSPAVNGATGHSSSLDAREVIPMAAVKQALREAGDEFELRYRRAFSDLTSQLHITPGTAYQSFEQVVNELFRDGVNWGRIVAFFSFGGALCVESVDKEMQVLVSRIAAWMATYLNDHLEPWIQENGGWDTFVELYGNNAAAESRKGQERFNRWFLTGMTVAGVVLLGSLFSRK

As to `CCCC[C@H](NC(=O)[C@]1(C)CCCC=CCCC[C@](C)(NC(=O)[C@H](C)NC(=O)[C@H](CC(C)C)NC(=O)[C@H](Cc2c[nH]cn2)NC(=O)[C@H](CCCNC(=N)N)NC(=O)[C@H](C)NC(=O)[C@@H](NC(=O)[C@H](CC(N)=O)NC(=O)[C@H](CCCNC(=N)N)NC(=O)[C@@H](NC(=O)[C@@H](NC(=O)[C@H](CC(=O)O)NC(C)=O)[C@@H](C)CC)[C@@H](C)CC)[C@@H](C)CC)C(=O)N[C@@H](C(C)C)C(=O)NCC(=O)N[C@@H](CC(=O)O)C(=O)N1)C(=O)N[C@@H](CC(=O)O)C(=O)N[C@@H](CCCNC(=N)N)C(=O)N[C@@H](CO)C(=O)N[C@H](C(N)=O)[C@@H](C)CC` [SP-1, Ac-DIIRNIARHLA$VGD$NleDRSI-NH2] (Ac-DIIRNIARHLA[S5]VGD[S5][Nle]DRSI-NH2; staple 12-16), in data set [1], the “K1 min^-1” value came out at 0.0084 min⁻¹ and the “half-life^1” value was found to be 1.38 h. Besides, in data set [2], the “AUC,inf” value worked out at 72000 ng·h/mL; the distribution volume (Vss) (in general, the apparent volume that relates the amount in the body to the concentration in plasma or blood) was found to be 0.098 L/kg; the Vz – broadly, the apparent volume that relates the amount in the body to the concentration in plasma or blood – is 0.274 L/kg. For the same compound, in data set [2] (rat, in vivo, iv), the Cmax (as a rule, the peak of the concentration-time curve) worked out at 37000 ng/mL; the MRT (commonly a mean duration of stay, worked out from the concentration-time curve) came out at 2.2 h; the half-life (usually how long it takes for the measured level to halve) is 4.3 h. Moreover, the Kd (usually the free concentration of one partner at which half of the binding sites on the other are occupied at equilibrium, for simple one-to-one binding) at GST-Bcl-XL stood at 43 nM. On GST-Bcl-2 [3], binding was put at a Kd of 1600 nM.

In the case of `CCCC[C@H](NC(=O)[C@@H]1CSCCCCSC[C@H](NC(=O)[C@H](C)NC(=O)[C@H](CC(C)C)NC(=O)[C@H](Cc2c[nH]cn2)NC(=O)[C@H](CCCNC(=N)N)NC(=O)[C@H](C)NC(=O)[C@@H](NC(=O)[C@H](CC(N)=O)NC(=O)[C@H](CCCNC(=N)N)NC(=O)[C@@H](NC(=O)[C@@H](NC(=O)[C@H](CC(=O)O)NC(C)=O)[C@@H](C)CC)[C@@H](C)CC)[C@@H](C)CC)C(=O)N[C@@H](C(C)C)C(=O)NCC(=O)N[C@@H](CC(=O)O)C(=O)N1)C(=O)N[C@@H](CC(=O)O)C(=O)N[C@@H](CCCNC(=N)N)C(=O)N[C@@H](CO)C(=O)N[C@H](C(N)=O)[C@@H](C)CC` [SP-33, Ac-DIIRNIARHLA#c4VGD#c4NleDRSI-NH2] (Ac-DIIRNIARHLACVGDC[Nle]DRSI-NH2; linker 12-16 via X2), in data set [4], the “K1 min^-1” value turned out to be 0.054 min⁻¹, the “K2 min^-1” value was 0.0046 min⁻¹, the “half-life^1” value amounted to 0.217 h and the “half-life^2” value amounted to 2.5 h.

Take `CCCC[C@H](NC(=O)C1(C)CSCCCCSCC(C)(NC(=O)[C@H](C)NC(=O)[C@H](CC(C)C)NC(=O)[C@H](Cc2c[nH]cn2)NC(=O)[C@H](CCCNC(=N)N)NC(=O)[C@H](C)NC(=O)[C@@H](NC(=O)[C@H](CC(N)=O)NC(=O)[C@H](CCCNC(=N)N)NC(=O)[C@@H](NC(=O)[C@@H](NC(=O)[C@H](CC(=O)O)NC(C)=O)[C@@H](C)CC)[C@@H](C)CC)[C@@H](C)CC)C(=O)N[C@@H](C(C)C)C(=O)NCC(=O)N[C@@H](CC(=O)O)C(=O)N1)C(=O)N[C@@H](CC(=O)O)C(=O)N[C@@H](CCCNC(=N)N)C(=O)N[C@@H](CO)C(=O)N[C@H](C(N)=O)[C@@H](C)CC` (stereo partly shown) [SP-34, Ac-DIIRNIARHLA$c4VGD$c4NleDRSI-NH2] (Ac-DIIRNIARHLA[ξαMeC]VGD[ξαMeC][Nle]DRSI-NH2; linker 12-16 via X2): in [4], the “K1 min^-1” value was found to be 0.0019 min⁻¹ and the “half-life^1” value was determined as 6 h.

As to `CCCC[C@H](NC(=O)[C@@H]1CSCC=CCSC[C@H](NC(=O)[C@H](C)NC(=O)[C@H](CC(C)C)NC(=O)[C@H](Cc2c[nH]cn2)NC(=O)[C@H](CCCNC(=N)N)NC(=O)[C@H](C)NC(=O)[C@@H](NC(=O)[C@H](CC(N)=O)NC(=O)[C@H](CCCNC(=N)N)NC(=O)[C@@H](NC(=O)[C@@H](NC(=O)[C@H](CC(=O)O)NC(C)=O)[C@@H](C)CC)[C@@H](C)CC)[C@@H](C)CC)C(=O)N[C@@H](C(C)C)C(=O)NCC(=O)N[C@@H](CC(=O)O)C(=O)N1)C(=O)N[C@@H](CC(=O)O)C(=O)N[C@@H](CCCNC(=N)N)C(=O)N[C@@H](CO)C(=O)N[C@H](C(N)=O)[C@@H](C)CC` [SP-36, Ac-DIIRNIARHLA#cVGD#cNleDRSI-NH2] (Ac-DIIRNIARHLACVGDC[Nle]DRSI-NH2; linker 12-16 via X1), in data set [5], the “K1 min^-1” value was 0.095 min⁻¹ and 0.082 min⁻¹; the “K2 min^-1” value was 0.0290 min⁻¹ and 0.024 min⁻¹; the “half-life^1” value was 7.3 min and 8.5 min; the “half-life^2” value was 0.4 h and 0.483 h.

In [6], `CC(=O)N[C@@H](CCC(N)=O)C(=O)N[C@@H](CO)C(=O)N[C@@H](CCC(N)=O)C(=O)N[C@@H](CCC(N)=O)C(=O)N[C@H](C(=O)N[C@@H](Cc1ccccc1)C(=O)N[C@@H]1CCCCCCC=CCCC[C@@H](C(=O)N[C@@H](CCC(N)=O)C(=O)N[C@@H](CC(N)=O)C(N)=O)NC(=O)[C@H](CC(C)C)NC(=O)[C@H](CC(C)C)NC(=O)[C@H](CCCNC(=N)N)NC(=O)[C@H](Cc2c[nH]c3ccccc23)NC(=O)[C@H](CC(C)C)NC(=O)[C@H](CC(N)=O)NC1=O)[C@@H](C)O` [SP-42, Ac-QSQQTF#r8NLWRLL#QN-NH2] came in with a Cmax of 41200 ng/mL and an MRT of 1.1 h.

Regarding `CC[C@H](C)[C@H](NC(C)=O)C(=O)N[C@@H](Cc1c[nH]c2ccccc12)C(=O)N[C@H](C(=O)N[C@@H](C)C(=O)N[C@@H](CCC(N)=O)C(=O)N[C@@H](CCC(=O)O)C(=O)N[C@@H](CC(C)C)C(=O)N[C@@H](CCCNC(=N)N)C(=O)N[C@H]1CCCC=CCCC[C@@H](C(=O)N[C@@H](Cc2ccccc2)C(=O)N[C@@H](CC(N)=O)C(=O)N[C@@H](C)C(=O)N[C@@H](Cc2ccc(O)cc2)C(=O)N[C@@H](Cc2ccc(O)cc2)C(=O)N[C@@H](C)C(=O)N[C@@H](CCCNC(=N)N)C(=O)N[C@@H](CCCNC(=N)N)C(N)=O)NC(=O)[C@H](CC(=O)O)NC(=O)CNC(=O)[C@H]([C@@H](C)CC)NC1=O)[C@@H](C)CC` [SP-54, Ac-IWIAQELR#IGD#FNAYYARR-NH2], in data set [7], the “AUC,inf” value was 12700 ng·h/mL, the “Cl” value was found to be 4.02 mL/min/kg, the “Vss” value was found to be 0.126 L/kg and the “Vz” value amounted to 1.206 L/kg. For the same compound, in data set [7] (rat, in vivo, iv), the Cmax stood at 27100 ng/mL, the MRT was 0.52 h and the half-life was 1 h. This compound gave a Kd at GST-Mcl-1 of 22 nM. The Kd on GST-Bcl-2 [8] turned out to be 97 nM.

Values taken from US20110144303A1, “Biologically Active Peptidomimetic Macrocycles” (AILERON Therapeutics, Inc., priority 2008, published 2011).
